Measured values from patent US12599597B2, “Substituted N-benzhydrylacetamide inhibitors of jumanji domain histone demethylases for the treatment of cancer” (University of Kentucky Research Foundation, priority 2020, dated 2026).

Assays:
Assay in all cases: Histone demethylase assay, purified enzyme panel
Assay type in all cases: biochemical
Conditions in all cases: 58B1, 10 μM
Jarid1B (KDM5B) = Jarid1B (KDM5B) (Homo sapiens, UniProt Q9UGL1)
Excerpt: (§1) Histone Demethylase Assay
(§2) To further examine the effects of 58B1 on histone demethylase, we screened a panel of purified histone demethylases was screened.

JMJD2C (KDM4C) = target: T1, JMJD2C (KDM4C) (Homo sapiens, UniProt Q9H3R0)
T1 sequence (Q9H3R0 1-1056): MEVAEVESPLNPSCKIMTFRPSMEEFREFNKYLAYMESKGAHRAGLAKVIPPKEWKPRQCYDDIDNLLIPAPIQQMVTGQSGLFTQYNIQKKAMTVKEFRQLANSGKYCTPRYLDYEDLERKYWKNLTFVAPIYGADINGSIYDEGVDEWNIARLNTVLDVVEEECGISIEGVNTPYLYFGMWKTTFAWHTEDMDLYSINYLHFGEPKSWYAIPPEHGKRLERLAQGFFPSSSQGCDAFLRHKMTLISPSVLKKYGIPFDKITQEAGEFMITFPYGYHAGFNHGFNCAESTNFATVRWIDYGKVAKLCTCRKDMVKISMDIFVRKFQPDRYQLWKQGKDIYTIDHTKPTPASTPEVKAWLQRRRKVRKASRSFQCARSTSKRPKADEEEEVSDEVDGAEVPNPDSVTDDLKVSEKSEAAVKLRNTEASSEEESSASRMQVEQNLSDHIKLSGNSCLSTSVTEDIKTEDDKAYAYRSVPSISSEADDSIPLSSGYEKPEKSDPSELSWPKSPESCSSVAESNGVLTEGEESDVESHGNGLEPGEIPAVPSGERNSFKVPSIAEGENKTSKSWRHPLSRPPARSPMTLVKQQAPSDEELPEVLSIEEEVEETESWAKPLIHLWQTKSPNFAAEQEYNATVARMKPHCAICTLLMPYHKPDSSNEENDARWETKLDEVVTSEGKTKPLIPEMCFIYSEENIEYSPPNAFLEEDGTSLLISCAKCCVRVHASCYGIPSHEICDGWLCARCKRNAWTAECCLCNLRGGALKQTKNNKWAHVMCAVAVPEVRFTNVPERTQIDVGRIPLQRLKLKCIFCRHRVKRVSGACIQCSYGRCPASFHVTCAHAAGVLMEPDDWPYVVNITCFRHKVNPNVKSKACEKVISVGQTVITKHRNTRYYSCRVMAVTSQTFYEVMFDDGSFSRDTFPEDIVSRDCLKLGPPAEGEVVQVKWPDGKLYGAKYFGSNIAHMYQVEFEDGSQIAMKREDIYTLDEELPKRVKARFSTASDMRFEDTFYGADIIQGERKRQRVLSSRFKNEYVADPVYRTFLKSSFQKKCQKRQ
Excerpt: as §1, §2

LSD1 (KDM1A) = LSD1 (KDM1A) (Homo sapiens, UniProt O60341)
Excerpt: as §1, §2

UTX (KDM6A) = UTX (KDM6A) (Homo sapiens, UniProt O15550)
UTX (KDM6A), sequence (O15550 whole entry): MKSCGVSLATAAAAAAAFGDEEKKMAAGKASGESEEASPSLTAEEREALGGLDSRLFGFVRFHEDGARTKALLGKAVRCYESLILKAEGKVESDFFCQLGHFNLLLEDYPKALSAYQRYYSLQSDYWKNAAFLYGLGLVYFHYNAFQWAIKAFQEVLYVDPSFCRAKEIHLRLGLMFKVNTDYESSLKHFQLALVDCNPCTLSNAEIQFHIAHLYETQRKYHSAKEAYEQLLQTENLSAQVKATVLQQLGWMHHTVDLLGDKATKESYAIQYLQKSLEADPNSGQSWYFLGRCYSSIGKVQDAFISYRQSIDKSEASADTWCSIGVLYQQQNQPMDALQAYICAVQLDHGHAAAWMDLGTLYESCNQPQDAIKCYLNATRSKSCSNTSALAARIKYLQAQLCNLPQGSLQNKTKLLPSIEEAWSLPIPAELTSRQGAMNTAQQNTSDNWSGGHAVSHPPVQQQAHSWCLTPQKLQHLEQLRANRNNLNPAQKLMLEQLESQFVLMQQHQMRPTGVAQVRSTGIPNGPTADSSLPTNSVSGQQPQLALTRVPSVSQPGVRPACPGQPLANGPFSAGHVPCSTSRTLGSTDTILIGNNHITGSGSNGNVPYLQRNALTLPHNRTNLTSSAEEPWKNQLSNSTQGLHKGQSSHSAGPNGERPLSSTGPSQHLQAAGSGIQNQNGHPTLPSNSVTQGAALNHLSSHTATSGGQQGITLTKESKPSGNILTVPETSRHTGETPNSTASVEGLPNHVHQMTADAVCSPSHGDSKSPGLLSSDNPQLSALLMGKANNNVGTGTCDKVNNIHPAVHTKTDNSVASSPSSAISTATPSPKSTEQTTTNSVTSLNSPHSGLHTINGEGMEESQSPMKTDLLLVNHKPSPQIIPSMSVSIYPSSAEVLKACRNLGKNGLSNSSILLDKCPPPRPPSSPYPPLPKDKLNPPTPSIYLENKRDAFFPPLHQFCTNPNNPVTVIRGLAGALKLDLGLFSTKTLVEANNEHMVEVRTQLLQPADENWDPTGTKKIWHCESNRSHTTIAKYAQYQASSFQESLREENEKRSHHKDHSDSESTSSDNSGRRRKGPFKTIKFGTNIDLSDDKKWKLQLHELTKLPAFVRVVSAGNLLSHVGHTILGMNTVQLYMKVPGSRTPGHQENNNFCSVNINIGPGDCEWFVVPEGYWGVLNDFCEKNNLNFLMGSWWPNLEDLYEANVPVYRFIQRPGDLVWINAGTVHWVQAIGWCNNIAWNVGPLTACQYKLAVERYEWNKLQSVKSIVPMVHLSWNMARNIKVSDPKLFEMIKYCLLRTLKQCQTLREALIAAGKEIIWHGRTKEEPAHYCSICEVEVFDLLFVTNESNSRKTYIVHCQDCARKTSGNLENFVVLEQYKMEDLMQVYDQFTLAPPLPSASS
Excerpt: as §1, §2

JMJD3 (KDM6B) = JMJD3 (KDM6B) (Homo sapiens, UniProt O15054)
JMJD3 (KDM6B), sequence (O15054 whole entry): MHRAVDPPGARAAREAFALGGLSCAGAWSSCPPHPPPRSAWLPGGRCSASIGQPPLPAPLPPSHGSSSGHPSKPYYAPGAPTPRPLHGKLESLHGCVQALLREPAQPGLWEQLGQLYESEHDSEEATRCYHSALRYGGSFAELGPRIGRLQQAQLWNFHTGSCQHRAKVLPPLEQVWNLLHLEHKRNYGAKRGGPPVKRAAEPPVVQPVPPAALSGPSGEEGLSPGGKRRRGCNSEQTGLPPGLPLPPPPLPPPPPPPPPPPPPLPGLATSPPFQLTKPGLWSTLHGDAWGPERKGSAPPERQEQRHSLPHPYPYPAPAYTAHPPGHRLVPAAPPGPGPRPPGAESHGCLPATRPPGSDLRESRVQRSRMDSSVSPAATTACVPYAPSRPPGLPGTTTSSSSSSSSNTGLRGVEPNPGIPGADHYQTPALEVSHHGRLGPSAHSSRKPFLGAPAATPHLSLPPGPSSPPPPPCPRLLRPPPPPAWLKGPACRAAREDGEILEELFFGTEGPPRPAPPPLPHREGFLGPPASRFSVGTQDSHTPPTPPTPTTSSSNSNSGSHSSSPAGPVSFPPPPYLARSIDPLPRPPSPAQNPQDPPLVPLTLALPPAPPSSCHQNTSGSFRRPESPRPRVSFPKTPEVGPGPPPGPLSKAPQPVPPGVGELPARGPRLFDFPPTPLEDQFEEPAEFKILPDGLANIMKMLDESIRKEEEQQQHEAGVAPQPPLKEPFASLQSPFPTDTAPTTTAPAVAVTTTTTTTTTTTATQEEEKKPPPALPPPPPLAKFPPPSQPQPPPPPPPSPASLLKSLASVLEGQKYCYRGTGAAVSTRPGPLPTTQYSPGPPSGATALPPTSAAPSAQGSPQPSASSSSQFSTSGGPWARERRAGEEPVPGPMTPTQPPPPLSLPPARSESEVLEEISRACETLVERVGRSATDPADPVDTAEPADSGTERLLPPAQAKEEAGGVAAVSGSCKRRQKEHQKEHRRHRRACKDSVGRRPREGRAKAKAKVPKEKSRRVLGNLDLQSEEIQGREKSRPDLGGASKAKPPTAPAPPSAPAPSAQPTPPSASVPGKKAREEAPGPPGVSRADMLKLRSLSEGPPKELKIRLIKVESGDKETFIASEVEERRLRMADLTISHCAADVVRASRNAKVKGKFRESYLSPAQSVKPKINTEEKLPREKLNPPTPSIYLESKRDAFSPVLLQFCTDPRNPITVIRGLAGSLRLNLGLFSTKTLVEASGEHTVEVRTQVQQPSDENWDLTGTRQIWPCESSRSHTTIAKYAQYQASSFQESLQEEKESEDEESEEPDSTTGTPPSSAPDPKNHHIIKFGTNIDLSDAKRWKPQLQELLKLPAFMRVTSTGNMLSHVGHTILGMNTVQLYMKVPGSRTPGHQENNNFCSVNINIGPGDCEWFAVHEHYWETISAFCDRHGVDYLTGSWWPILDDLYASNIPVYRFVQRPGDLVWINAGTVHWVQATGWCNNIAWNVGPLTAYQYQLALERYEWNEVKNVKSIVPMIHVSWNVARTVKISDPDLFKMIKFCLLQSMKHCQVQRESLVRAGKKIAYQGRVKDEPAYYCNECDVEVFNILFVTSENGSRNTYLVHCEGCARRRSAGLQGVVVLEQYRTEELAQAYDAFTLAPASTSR
Excerpt: as §1, §2

FBXL10 (KDM2B) = target: T2, FBXL10 (KDM2B) (Homo sapiens, UniProt Q8NHM5)
T2 sequence (Q8NHM5 1-1336): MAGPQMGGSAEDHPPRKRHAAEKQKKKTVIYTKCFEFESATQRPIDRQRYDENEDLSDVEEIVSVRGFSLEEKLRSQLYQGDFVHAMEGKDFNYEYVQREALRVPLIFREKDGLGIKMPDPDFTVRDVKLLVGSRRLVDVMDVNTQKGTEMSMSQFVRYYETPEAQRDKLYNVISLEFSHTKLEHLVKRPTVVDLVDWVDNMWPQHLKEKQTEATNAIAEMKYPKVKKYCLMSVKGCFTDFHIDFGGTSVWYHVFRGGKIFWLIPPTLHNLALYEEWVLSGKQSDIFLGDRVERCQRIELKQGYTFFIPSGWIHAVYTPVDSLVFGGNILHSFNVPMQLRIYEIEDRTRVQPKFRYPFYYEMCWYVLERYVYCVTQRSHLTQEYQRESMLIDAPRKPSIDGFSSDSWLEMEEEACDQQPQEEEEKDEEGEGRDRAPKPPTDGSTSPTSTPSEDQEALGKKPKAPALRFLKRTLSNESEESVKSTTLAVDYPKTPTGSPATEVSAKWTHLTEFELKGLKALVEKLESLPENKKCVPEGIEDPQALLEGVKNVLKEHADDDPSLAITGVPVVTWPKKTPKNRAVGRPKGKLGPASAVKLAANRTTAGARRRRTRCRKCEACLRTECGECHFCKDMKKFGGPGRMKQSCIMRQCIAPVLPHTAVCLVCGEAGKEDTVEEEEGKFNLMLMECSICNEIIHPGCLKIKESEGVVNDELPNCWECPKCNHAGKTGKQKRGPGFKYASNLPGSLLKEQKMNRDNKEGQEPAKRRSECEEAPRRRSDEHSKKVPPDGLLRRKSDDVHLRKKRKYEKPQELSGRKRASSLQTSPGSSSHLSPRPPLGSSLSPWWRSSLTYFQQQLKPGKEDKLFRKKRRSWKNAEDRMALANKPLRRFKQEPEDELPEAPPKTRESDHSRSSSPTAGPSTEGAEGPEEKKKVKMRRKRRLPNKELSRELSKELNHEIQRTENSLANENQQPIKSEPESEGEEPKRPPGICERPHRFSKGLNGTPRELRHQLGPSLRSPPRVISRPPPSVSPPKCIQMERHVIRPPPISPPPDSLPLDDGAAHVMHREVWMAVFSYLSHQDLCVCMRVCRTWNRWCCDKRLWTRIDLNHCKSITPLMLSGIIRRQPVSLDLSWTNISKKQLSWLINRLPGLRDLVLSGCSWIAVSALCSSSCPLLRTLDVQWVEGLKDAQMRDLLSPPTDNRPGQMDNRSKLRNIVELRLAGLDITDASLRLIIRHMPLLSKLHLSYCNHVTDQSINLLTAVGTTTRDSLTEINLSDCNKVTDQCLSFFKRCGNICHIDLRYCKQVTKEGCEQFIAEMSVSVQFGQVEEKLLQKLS
Excerpt: as §1, §2

Jarid1B (KDM5B), sequence (Q9UGL1 whole entry): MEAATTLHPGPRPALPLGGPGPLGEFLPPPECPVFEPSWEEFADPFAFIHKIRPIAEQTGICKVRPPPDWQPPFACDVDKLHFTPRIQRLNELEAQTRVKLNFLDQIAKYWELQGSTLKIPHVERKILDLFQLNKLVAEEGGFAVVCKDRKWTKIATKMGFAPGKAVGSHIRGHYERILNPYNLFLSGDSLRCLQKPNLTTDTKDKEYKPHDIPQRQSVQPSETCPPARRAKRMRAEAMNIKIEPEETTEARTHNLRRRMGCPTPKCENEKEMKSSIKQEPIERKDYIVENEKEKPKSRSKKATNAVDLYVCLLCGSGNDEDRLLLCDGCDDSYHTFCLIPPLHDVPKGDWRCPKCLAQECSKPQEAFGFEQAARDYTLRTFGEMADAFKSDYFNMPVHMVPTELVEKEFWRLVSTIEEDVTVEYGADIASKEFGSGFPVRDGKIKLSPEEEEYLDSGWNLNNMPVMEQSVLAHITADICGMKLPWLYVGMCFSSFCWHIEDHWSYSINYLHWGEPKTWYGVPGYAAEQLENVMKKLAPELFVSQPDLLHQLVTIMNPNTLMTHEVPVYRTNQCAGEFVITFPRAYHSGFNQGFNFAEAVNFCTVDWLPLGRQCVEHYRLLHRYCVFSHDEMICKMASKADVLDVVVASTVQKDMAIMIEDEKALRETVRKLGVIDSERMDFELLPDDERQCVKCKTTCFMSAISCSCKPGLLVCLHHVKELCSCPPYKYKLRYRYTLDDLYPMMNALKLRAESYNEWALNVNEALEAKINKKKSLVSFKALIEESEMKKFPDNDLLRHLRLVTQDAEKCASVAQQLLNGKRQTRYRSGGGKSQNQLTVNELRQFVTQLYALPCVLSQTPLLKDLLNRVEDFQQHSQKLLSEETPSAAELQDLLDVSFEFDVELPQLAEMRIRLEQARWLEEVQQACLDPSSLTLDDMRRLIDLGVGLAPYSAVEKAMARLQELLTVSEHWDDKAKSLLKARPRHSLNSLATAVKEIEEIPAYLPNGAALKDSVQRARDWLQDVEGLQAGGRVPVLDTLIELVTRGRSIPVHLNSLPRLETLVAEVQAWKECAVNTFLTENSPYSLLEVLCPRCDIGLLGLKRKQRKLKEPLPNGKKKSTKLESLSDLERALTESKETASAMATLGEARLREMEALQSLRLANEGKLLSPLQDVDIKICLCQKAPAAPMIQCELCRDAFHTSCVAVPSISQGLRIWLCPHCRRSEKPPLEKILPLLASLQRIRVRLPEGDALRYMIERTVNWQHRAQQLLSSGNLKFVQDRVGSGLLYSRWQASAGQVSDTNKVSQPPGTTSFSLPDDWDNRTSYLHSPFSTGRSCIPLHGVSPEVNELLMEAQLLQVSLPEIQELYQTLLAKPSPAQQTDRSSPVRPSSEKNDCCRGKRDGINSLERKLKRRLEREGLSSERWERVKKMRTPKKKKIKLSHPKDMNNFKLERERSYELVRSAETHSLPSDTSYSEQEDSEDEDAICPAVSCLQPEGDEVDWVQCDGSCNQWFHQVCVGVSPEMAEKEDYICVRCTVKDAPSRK

Structure (SMILES): CCCC(=O)NC(c1ccc(N(CC)CC)cc1)c1cc(Cl)c2cccnc2c1O (stereo not drawn) [58B1]
- inhibition at 10 µM (Jarid1B (KDM5B)): 95%
- inhibition at 10 µM (JMJD2C (KDM4C)): 72%
- inhibition at 10 µM (LSD1 (KDM1A)): 32%
- inhibition at 10 µM (UTX (KDM6A)): 100%
- inhibition at 10 µM (JMJD3 (KDM6B)): 94%
- inhibition at 10 µM (FBXL10 (KDM2B)): 30%
